Laboratory results published in the Kinase Knowledgebase extract (Sharma et al. 2016).

Molecular target: CDK2 (human) (UniProt P24941)
Test: Cell-Based Assay

Compound	IC50 (a549) [µM]	IC50 (ht-29) [µM]	IC50 (saos-2) [µM]	IC50 (hela) [µM]	IC50 (hs-27) [µM]	IC50 (imr90) [µM]	IC50 (mcf-7) [µM]	IC50 (w138) [µM]
Cc1ccc(Nc2nccc(-c3c(C)[nH]c(C#N)c3C)n2)cc1I	3.6	0.72	3.12	–	–	–	–	–
Cc1c[nH]c(C)c1-c1ccnc(Nc2ccc(I)c(Cl)c2)n1	4.39	–	–	–	–	–	–	–
Cc1[nH]c(CN2CCN(C)CC2)c(C)c1-c1ccnc(Nc2ccc(F)cc2)n1	13.8	5.09	14.2	–	–	–	–	–
Cc1[nH]c(C#N)c(C)c1-c1ccnc(Nc2ccc(I)cc2)n1	0.51	0.11	0.75	0.09	35.1	37.3	0.45	21.3
Cc1[nH]c(C#N)c(C)c1-c1ccnc(Nc2ccc(F)cc2)n1	–	–	–	–	15.1	20.8	–	9.6
Cc1[nH]c(Br)c(C)c1-c1ccnc(Nc2cccc([N+](=O)[O-])c2)n1	7.56	2.92	12.4	–	–	–	–	–
Cc1[nH]c(CN(C)C)c(C)c1-c1ccnc(Nc2ccc(F)cc2)n1	2.76	3.2	0.7	–	–	–	–	–
Cc1[nH]c(C#N)c(C)c1-c1ccnc(Nc2ccc(C(F)(F)F)cc2)n1	3.64	0.95	3.4	–	–	–	–	–
Cc1cc(Nc2nccc(-c3c(C)[nH]c(C#N)c3C)n2)ccc1Cl	4.37	3.27	5.88	–	–	–	–	–

Next, values leading:

IC50 (a549) [µM]	IC50 (ht-29) [µM]	IC50 (saos-2) [µM]	IC50 (hela) [µM]	IC50 (hs-27) [µM]	IC50 (imr90) [µM]	IC50 (mcf-7) [µM]	IC50 (w138) [µM]	Compound
3.05	0.61	2.65	–	–	–	–	–	Cc1[nH]c([N+](=O)[O-])c(C)c1-c1ccnc(Nc2ccc(N(C)C)cc2)n1
15	3.1	17	–	–	–	–	–	Cc1c[nH]c(C)c1-c1ccnc(Nc2ccc(C(F)(F)F)cc2)n1
0.97	1.31	1.61	–	–	–	–	–	CCN(CC)Cc1[nH]c(C)c(-c2ccnc(Nc3ccc(F)cc3)n2)c1C
1.41	0.17	1.5	–	–	–	–	–	Cc1[nH]c(C#N)c(C)c1-c1ccnc(Nc2ccc(N(C)C)cc2)n1
1.49	0.28	2.23	–	–	–	–	–	Cc1ccc(Nc2nccc(-c3c(C)[nH]c(C#N)c3C)n2)cc1F
–	–	0.9	–	–	–	–	–	Cc1[nH]c(C#N)c(C)c1-c1ccnc(Nc2cccc(O)c2)n1
